18 compounds from US20100113445A1, “Chemical Compounds” (SMITHKLINE BEECHAM CORPORATION, priority 2007, published 2010) can be followed below.

Molecules are shown by their SMILES. Structures can show the parent of a compound that is named as a salt. Where only a bound is given, the exact number is not on record here.

For the assay, the target named is T1, Wee1 (Homo sapiens, UniProt P30291).
T1 construct: endogenous in cells; host or cells: HeLa cells
T1 sequence (P30291 whole entry): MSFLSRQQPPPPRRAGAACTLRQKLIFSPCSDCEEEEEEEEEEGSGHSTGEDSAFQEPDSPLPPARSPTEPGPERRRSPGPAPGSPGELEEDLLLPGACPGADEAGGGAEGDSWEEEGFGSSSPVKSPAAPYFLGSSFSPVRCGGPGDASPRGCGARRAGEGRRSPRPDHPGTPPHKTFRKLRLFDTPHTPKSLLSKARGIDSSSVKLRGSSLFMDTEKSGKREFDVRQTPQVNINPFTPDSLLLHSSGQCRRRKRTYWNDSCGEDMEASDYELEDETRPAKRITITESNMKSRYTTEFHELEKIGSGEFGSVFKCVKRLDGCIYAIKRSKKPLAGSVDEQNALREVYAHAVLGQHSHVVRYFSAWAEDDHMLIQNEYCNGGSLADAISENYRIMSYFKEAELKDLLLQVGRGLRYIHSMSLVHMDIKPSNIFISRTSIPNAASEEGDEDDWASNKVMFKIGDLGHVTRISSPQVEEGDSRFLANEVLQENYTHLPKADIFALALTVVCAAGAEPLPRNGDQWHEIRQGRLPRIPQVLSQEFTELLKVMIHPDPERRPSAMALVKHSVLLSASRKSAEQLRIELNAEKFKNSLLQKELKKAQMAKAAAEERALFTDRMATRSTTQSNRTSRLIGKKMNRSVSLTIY
In words: Cell assay for Wee1 inhibitory activity (cell-based ELISA of cdc2 phosphorylation). The settings on record: aphidicolin-synchronized Hela cells in G2-M; phospho-cdc2(Tyr15) sandwich ELISA; read-out: pIC50, cell assay for Wee1 inhibitory activity (converted). From the text: Cell Assay for Wee1 Inhibitory Activity
Wee1 inhibitory activity can be measured using a cell-based ELISA assay.
Hela cells are synchronized using aphidicolin, which blocks the entry of cells into S-phase. Cells in G2-M transition phase are then obtained by releasing the cells from aphidicolin treatment for approximately 7-9 hrs. The phosphorylation level of the Wee1 target cdc2 may then be measured by sandwich ELISA using an anti-cdc2 antibody and an anti-phospho-cdc2(Tyr15) antibody. This cell assay was used to calculate a pIC50 for the compounds described in Examples 3, 4, 6-8, 10-12, 15, 17, 18, 21, 23, 25-27, 33, 35, 39, 43, 44, 51, 63, and 99.
Background: An ELISA detects its analyte on a solid surface through an enzyme-linked reagent.
On to `Cc1ncc(-c2cccc(Nc3nc(Nc4ccc(Cn5cncn5)cc4)ncc3-c3cncnc3)c2)s1` [Example 51, N^4-[3-(2-methyl-1,3-thiazol-5-yl)phenyl]-N^2-[4-(1H-1,2,4-triazol-1-ylmethyl)phenyl]-5,5′-bipyrimidine-2,4-diamine], for which the IC50 was at most 10 µM.
With `CCN(CC)CCOc1ccc(Nc2ncc(-c3cn[nH]c3)c(Nc3ccccc3OC)n2)cc1` [Example 3, N^2-(4-{[2-(diethylamino)ethyl]oxy}phenyl)-N^4-[2-(methyloxy)phenyl]-5-(1H-pyrazol-4-yl)-2,4-pyrimidinediamine], the IC50 is at most 10 µM.
As for `CCN(CC)CCOc1ccc(Nc2ncc(-c3cncnc3)c(Nc3ccccc3OC)n2)cc1` [Example 8, N^2-(4-{[2-(diethylamino)ethyl]oxy}phenyl)-N^4-[2-(methyloxy)phenyl]-5,5′-bipyrimidine-2,4-diamine], the IC50 is at most 10 µM.
Turning to `CCN(CC)CCOC(=O)Nc1ccc(Nc2ncc(-c3cncnc3)c(Nc3ccccc3OC)n2)cc1` [Example 43, 2-(diethylamino)ethyl {4-[(4-{[2-(methyloxy)phenyl]amino}-5,5′-bipyrimidin-2-yl)amino]phenyl}carbamate], the IC50 is at most 10 µM.
The same measure for `CCN(CC)CCOc1ccc(Nc2ncc(-c3cncnc3)c(Nc3cccc(C#N)c3)n2)cc1` [Example 44, 3-({2-[(4-{[2-(diethylamino)ethyl]oxy}phenyl)amino]-5,5′-bipyrimidin-4-yl}amino)benzonitrile]: at most 10 µM.
With `COc1ccccc1Nc1nc(Nc2ccc(Cn3cncn3)cc2)ncc1-c1cncnc1` [Example 33, N^4-[2-(methyloxy)phenyl]-N^2-[4-(1H-1,2,4-triazol-1-ylmethyl)phenyl]-5,5′-bipyrimidine-2,4-diamine], the IC50 is at most 10 µM.
Take `COc1ccccc1Nc1nc(Nc2cccc(OCCN(C)C)c2)ncc1-c1cn[nH]c1` [Example 99, N^2-(3-{[2-(dimethylamino)ethyl]oxy}phenyl)-N^4-[2-(methyloxy)phenyl]-5-(1H-pyrazol-4-yl)-2,4-pyrimidinediamine hydrochloride]: the IC50 was at most 10 µM.
Consider `CCN(CC)CCOc1ccc(Nc2ncc(-c3cnc4ccccc4c3)c(Nc3ccccc3OC)n2)cc1` [Example 10, N^2-(4-{[2-(diethylamino)ethyl]oxy}phenyl)-N^4-[2-(methyloxy)phenyl]-5-(3-quinolinyl)-2,4-pyrimidinediamine], for which the IC50 is at most 10 µM.
The same measure for `CCC(C)NC(=O)c1ccccc1Nc1nc(Nc2ccc(Cn3cncn3)cc2)ncc1-c1cn[nH]c1` (stereo not drawn) [Example 25, N-(1-methylpropyl)-2-[(5-(1H-pyrazol-4-yl)-2-{[4-(1H-1,2,4-triazol-1-ylmethyl)phenyl]amino}-4-pyrimidinyl)amino]benzamide]: at most 10 µM.
Take `CCN(CC)CCOc1ccc(Nc2ncc(-c3cccc(CO)c3)c(Nc3ccccc3OC)n2)cc1` [Example 21, [3-(2-[(4-{[2-(diethylamino)ethyl]oxy}phenyl)amino]-4-{[2-(methyloxy)phenyl]amino}-5-pyrimidinyl)phenyl]methanol]: the IC50 was at most 10 µM.
In the case of `CCN(CC)CCOc1ccc(Nc2ncc(-c3ccc(O)cc3)c(Nc3ccccc3OC)n2)cc1` [Example 7], the IC50 was at most 10 µM.
The result for `CCN(CC)CCOc1ccc(Nc2ncc(-c3cccc(C(N)=O)c3)c(Nc3ccccc3OC)n2)cc1` [Example 63, 3-(2-[(4-{[2-(diethylamino)ethyl]oxy}phenyl)amino]-4-{[2-(methyloxy)phenyl]amino}-5-pyrimidinyl)benzamide] reads at most 10 µM; that for `CCN(CC)CCOc1ccc(Nc2ncc(-c3cnn(Cc4ccccc4)c3)c(Nc3ccccc3OC)n2)cc1` [Example 12, N^2-(4-{[2-(diethylamino)ethyl]oxy}phenyl)-N^4-[2-(methyloxy)phenyl]-5-[1-(phenylmethyl)-1H-pyrazol-4-yl]-2,4-pyrimidinediamine], at most 10 µM; that for `CCN(CC)CCOc1ccc(Nc2ncc(-c3cncc(OC)c3)c(Nc3ccccc3OC)n2)cc1` [Example 6, N^2-(4-{[2-(diethylamino)ethyl]oxy}phenyl)-N^4-[2-(methyloxy)phenyl]-5-[5-(methyloxy)-3-pyridinyl]-2,4-pyrimidinediamine], at most 10 µM.
As to `CCN(CC)CCOc1ccc(Nc2ncc(-c3cccc(N)c3)c(Nc3ccccc3OC)n2)cc1` [Example 35, 5-(3-aminophenyl)-N^2-(4-{[2-(diethylamino)ethyl]oxy}phenyl)-N^4-[2-(methyloxy)phenyl]-2,4-pyrimidinediamine], the IC50 is at most 10 µM.
The result for `Fc1cccc(CCNc2nc(Nc3ccc(Cn4cncn4)cc3)ncc2-c2cncnc2)c1` [Example 26, N^4-[2-(3-fluorophenyl)ethyl]-N^2-[4-(1H-1,2,4-triazol-1-ylmethyl)phenyl]-5,5′-bipyrimidine-2,4-diamine] reads at most 10 µM.
The same measure for `CCN(CC)CCOc1ccc(Nc2ncc(-c3ccccc3Cl)c(Nc3ccccc3OC)n2)cc1` [Example 11, 5-(2-chlorophenyl)-N^2-(4-{[2-(diethylamino)ethyl]oxy}phenyl)-N^4-[2-(methyloxy)phenyl]-2,4-pyrimidinediamine]: at most 10 µM.
For `CCN(CC)CCOc1ccc(Nc2ncc(-c3ccc4[nH]ncc4c3)c(Nc3ccccc3OC)n2)cc1` [Example 4, N^2-(4-[{2-(diethylamino)ethyl]oxy}phenyl)-5-(1H-indazol-5-yl)-N^4-[2-(methyloxy)phenyl]-2,4-pyrimidinediamine], the IC50 is at most 10 µM.
